As a reminder, the IC50 is the concentration at which inhibition is half-maximal.

From US9221834B2 (Merck Sharp & Dohme Corp., priority 2010, dated 2015) come the findings set out here.

The target of the experiment is T1, recombinant CETP (rCETP) (Homo sapiens, UniProt P11597).
T1 sequence (P11597 18-493): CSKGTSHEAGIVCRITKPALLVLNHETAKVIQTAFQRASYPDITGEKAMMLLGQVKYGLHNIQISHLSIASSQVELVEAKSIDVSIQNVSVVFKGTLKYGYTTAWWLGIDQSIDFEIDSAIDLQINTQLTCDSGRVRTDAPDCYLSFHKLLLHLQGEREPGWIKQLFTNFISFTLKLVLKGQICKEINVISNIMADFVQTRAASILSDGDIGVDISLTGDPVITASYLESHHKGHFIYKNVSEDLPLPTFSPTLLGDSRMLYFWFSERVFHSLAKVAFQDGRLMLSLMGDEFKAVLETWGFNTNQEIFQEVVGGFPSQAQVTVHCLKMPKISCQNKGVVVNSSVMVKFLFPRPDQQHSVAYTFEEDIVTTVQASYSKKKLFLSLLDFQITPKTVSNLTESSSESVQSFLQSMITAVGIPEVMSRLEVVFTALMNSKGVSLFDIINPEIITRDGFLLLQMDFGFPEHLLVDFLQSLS
Kind of experiment: RTA assay using recombinant CETP (2% RTA). The note with it: RTA assay in 2% human serum; read-out: IC50. In kind it is biochemical. The method, then: In Vitro Radioactive Assays of CETP-Catalyzed CE and TG Transfer (RTA Assay)
Reagents and sources are: [3H] cholesteryl oleate (GE #TRK.886), [3H]
Both assays measure the transfer of [3H] cholesteryl oleate or [3H]triolein from exogenous LDL to HDL.
After a brief vortex, the solution is sonicated until clear and mixed with 20 mL of fresh human serum. The mixture is incubated overnight at 37° C. […] Once isolated the particles are dialyzed 3× in CETP buffer (50 mM Tris, pH 7.4, 100 mM NaCl, 1 mM EDTA). Human HDL is purchased from Intracel and used as the acceptor particles.
Transfer assays are performed in a 96-well v-bottom polypropylene plate. […] 1 μL of each test compound diluted in DMSO is added to 47 μL of assay cocktail per well and incubated at 37° C. for 1 hour. To initiate the transfer reaction, 2 μL radiolabeled LDL is added. After an additional 60 min of incubation at 37° C., the transfer action is terminated by precipitation of LDL with an equal volume of 20% W/V PEG 8000. The plates are centrifuged at 2000 rpm for 30 minutes at 4° C. A 40 μL aliquot of the HDL-containing supernatant is transferred to a Packard Optiplate with 200 μL of MicroScint 20. After mixing, plates are counted by liquid scintillation. Counts present in the supernatant for blanks (wells containing only HDL acceptor, CETP buffer and DMSO) are subtracted from those containing test compounds and used to correct for non-specific transfer.
Comparison of the counts of samples with inhibitors to an uninhibited (DMSO only) positive control yield a percent inhibition. A plot of percent inhibition vs. log of inhibitor concentration, fit to a Sigmoidal 4 parameter equation is used to calculate IC50.

In the case of `COc1ccc([C@H]2CC[C@H](C(=O)OC)CC2)cc1-c1ccc(N2CCC2)nc1CN1C(=O)O[C@H](c2cc(F)cc(F)c2)[C@@H]1C` [Example 19], the IC50 turned out to be 381 nM.
Consider `COc1ccc(CCC(=O)O)cc1-c1ccc(N2CCC2)nc1CN1C(=O)O[C@H](c2cccc(C)c2)[C@@H]1C` [Example 223], for which the IC50 is 289 nM.
`COc1ccc([C@@H]2C[C@H]2C(=O)O)cc1-c1c(C)cc(N2CCC2)nc1CN1C(=O)O[C@H](c2cc(C(F)(F)F)cc(C(F)(F)F)c2)[C@@H]1C` [Example 68]: the IC50 amounted to 4 nM.
With `COc1c(F)cc(-c2ccc(C(=O)O)cc2C)cc1-c1c(C)cc(N2CCC2)nc1CN1C(=O)O[C@H](c2cc(C(F)(F)F)cc(C(F)(F)F)c2)[C@@H]1C` [Example 287], the 50% inhibitory concentration (IC50) was found to be 3 nM.
On to `COc1cc(F)c(CCC(=O)O)cc1-c1ccc(N2CC(F)(F)C2)nc1CN1C(=O)O[C@H](c2cc(C(F)(F)F)cc(C(F)(F)F)c2)[C@@H]1C` [Example 65], for which the IC50 was found to be 24 nM.
In the case of `COc1ccc(CCC(=O)O)cc1-c1ccc(N2CCCCC2)nc1CN1C(=O)O[C@H](c2cc(C(F)(F)F)cc(C(F)(F)F)c2)[C@@H]1C` [Example 271, 3-{3-[2-({(4S,5R)-5-[3,5-bis(trifluoromethyl)phenyl]-4-methyl-2-oxo-1,3-oxazolidin-3-yl}methyl)-6-piperidin-1-ylpyridin-3-yl]-4-methoxyphenyl}propanoic acid], the concentration for half-maximal inhibition (IC50) was found to be 96 nM.
Take `COc1ccc(CC(C)(C)C(=O)O)cc1-c1ccc(N2CCC2)nc1CN1C(=O)O[C@H](c2cc(C(F)(F)F)cc(C(F)(F)F)c2)[C@@H]1C` [Example 122, 3-{3-[6-Azetidin-1-yl-2-({(4S,5R)-5-[3,5-bis(trifluoromethyl)phenyl]-4-methyl-2-oxo-1,3-oxazolidin-3-yl}methyl)pyridin-3-yl]-4-methoxyphenyl}-2,2-dimethylpropanoic acid]: the IC50 is 15 nM.
Then `COC(=O)[C@H]1CC[C@H](c2ccc(Cl)c(-c3cnc(N4CCC4)nc3CN3C(=O)O[C@H](c4cc(C(F)(F)F)cc(C(F)(F)F)c4)[C@@H]3C)c2)CC1` [Example 146], with 160 nM.
As to `COC1CN(c2ncc(-c3cc([C@H]4CC[C@H](C(=O)O)CC4)ccc3Cl)c(CN3C(=O)O[C@H](c4cc(C(F)(F)F)cc(C(F)(F)F)c4)[C@@H]3C)n2)C1` [Example 167], the IC50 amounted to 771 nM.
Regarding `COC(=O)c1ccc(-c2cc(-c3ccc(N4CCC4)nc3CN3C(=O)O[C@H](c4cc(F)c(F)c(F)c4)[C@@H]3C)c(OC)cc2F)c(C)c1` [Example 36], the IC50 came out at 26 nM.
As to `COC(=O)c1ccc(-c2ccc(OC)c(-c3ccc(N4CCC4)nc3CN3C(=O)O[C@H](c4cc(C(F)(F)F)cc(C(F)(F)F)c4)[C@@H]3C)c2)nc1` [Example 59], the IC50 was 195 nM.
Take `CCc1ccc(-c2ccc(C(=O)O)cc2C)cc1-c1cnc(N2CC(F)(F)C2)nc1CN1C(=O)O[C@H](c2cc(C(F)(F)F)cc(C(F)(F)F)c2)[C@@H]1C` [Example 162]: the IC50 turned out to be 6 nM.
Take `CCOC(=O)[C@@H]1C[C@H]1c1ccc(OC)c(-c2ccc(N3CCC3)nc2CN2C(=O)O[C@H](c3cc(F)cc(F)c3)[C@@H]2C)c1` [Example 16]: the IC50 was 94 nM.
Then `COc1ccc([C@H]2CC[C@H](C(=O)OC)CC2)cc1-c1ccc(N2CCC2)nc1CN1C(=O)O[C@H](c2cccc(C)c2)[C@@H]1C` [Example 201], with 166 nM; and `COc1ccc([C@@H]2C[C@H]2C(=O)O)cc1-c1ccc(N2CCC2)nc1CN1C(=O)O[C@H](c2cccc(C(F)(F)F)c2)[C@@H]1C` [Example 232], with 54 nM.
With `COc1ccc(Cc2nn[nH]n2)cc1-c1ccc(N2CCC2)nc1CN1C(=O)O[C@H](c2cc(C(F)(F)F)cc(C(F)(F)F)c2)[C@@H]1C` [Example 266, (4S,5R)-3-({6-azetidin-1-yl-3-[2-methoxy-5-(2H-tetrazol-5-ylmethyl)phenyl]pyridin-2-yl}methyl)-5-[3,5-bis(trifluoromethyl)phenyl]-4-methyl-1,3-oxazolidin-2-one], the IC50 stood at 79 nM.
Then `COc1ccc(C2C[C@H]2C(=O)O)cc1-c1cnc(N2CCC2)nc1CN1C(=O)O[C@H](c2cccc(C(F)(F)F)c2)[C@@H]1C` (some centres unmarked) [Example 274], with 1620 nM; and `COc1ccc([C@H]2C[C@@H](C(=O)OC)C2)cc1-c1c(C)cc(N2CCC2)nc1CN1C(=O)O[C@H](c2cc(C(F)(F)F)cc(C(F)(F)F)c2)[C@@H]1C` (single isomer, unassigned) [Example 42], with 102 nM; and `CCOC(=O)C[C@@H]1CCc2cc(OC)c(-c3ccc(N4CCC4)nc3CN3C(=O)O[C@H](c4cc(F)cc(F)c4)[C@@H]3C)cc21` [Example 20], with 96 nM.
Turning to `COc1ccc([C@H]2CC[C@H](C(=O)O)CC2)cc1-c1ccc(N2CCC2)nc1CN1C(=O)O[C@H](c2ccc(F)c(F)c2)[C@@H]1C` [Example 81], the IC50 stood at 161 nM.
As to `COC(=O)c1cc(-c2ccc(OC)c(-c3ccc(N4CCC4)nc3CN3C(=O)O[C@H](c4cc(C(F)(F)F)cc(C(F)(F)F)c4)[C@@H]3C)c2)c(C)s1` [Example 51], the IC50 worked out at 12 nM.
Regarding `COc1cc2c(cc1-c1ccc(N3CCC3)nc1CN1C(=O)O[C@H](c3cc(F)cc(F)c3)[C@@H]1C)[C@H](CC(=O)O)CC2` [Example 86], the IC50 is 415 nM.
In the case of `COc1ccc(-c2c(C)cc(C(=O)O)n2C)cc1-c1ccc(N2CCC2)nc1CN1C(=O)O[C@H](c2cc(C(F)(F)F)cc(C(F)(F)F)c2)[C@@H]1C` [Example 119], the IC50 was found to be 5 nM.
Regarding `COc1cc(F)c([C@H]2C[C@H](C(=O)OC)C2)cc1-c1ccc(N2CCC2)nc1CN1C(=O)O[C@H](c2cc(C(F)(F)F)cc(C(F)(F)F)c2)[C@@H]1C` [Example 38], the IC50 came to 5 nM.
For `COc1ccc([C@H]2C[C@@H]2C(=O)O)cc1-c1ccc(N2CC(F)(F)C2)nc1CN1C(=O)O[C@H](c2cc(C(F)(F)F)cc(C(F)(F)F)c2)[C@@H]1C` [Example 67], the IC50 amounted to 14 nM.
Then `COc1ccc(-c2cc(C(=O)O)sc2C)cc1-c1ccc(N2CCC2)nc1CN1C(=O)O[C@H](c2cc(C(F)(F)F)cc(C(F)(F)F)c2)[C@@H]1C` [Example 109], with 9 nM; and `COc1ccc([C@@H]2C[C@H]2C(=O)O)cc1-c1ccc(N2CCC2)nc1CN1C(=O)O[C@H](c2cc(F)cc(F)c2)[C@@H]1C` [Example 83], with 134 nM; and `COc1ccc([C@H]2CC[C@H](C(=O)OC)CC2)cc1-c1ccc(N2CCC2)nc1CN1C(=O)O[C@H](c2cc(C(F)(F)F)cc(C(F)(F)F)c2)[C@@H]1C` [Example 9], with 15 nM.
In the case of `COc1ccc(-c2ccc(C(=O)O)s2)cc1-c1ccc(N2CCC2)nc1CN1C(=O)O[C@H](c2cc(C(F)(F)F)cc(C(F)(F)F)c2)[C@@H]1C` [Example 105], the IC50 worked out at 51 nM.
In the case of `COc1ccc([C@H]2C[C@H](C(=O)O)C2)cc1-c1ccc(N2CC(F)(F)C2)nc1CN1C(=O)O[C@H](c2cccc(OC(F)(F)F)c2)[C@@H]1C` [Example 295], the IC50 is 114 nM.
Consider `COc1ccc([C@H]2CC[C@H](C(N)=O)CC2)cc1-c1ccc(N2CCC2)nc1CN1C(=O)O[C@H](c2cccc(C(F)(F)F)c2)[C@@H]1C` [Example 251], for which the IC50 amounted to 24 nM.
Turning to `COc1ccc(CC(C)(C)C(=O)O)cc1-c1ccc(N2CCC2)nc1CN1C(=O)O[C@H](c2cccc(C(F)(F)F)c2)[C@@H]1C` [Example 221], the IC50 came out at 145 nM.
Regarding `COc1ccc(CCO)cc1-c1ccc(N2CCC2)nc1CN1C(=O)O[C@H](c2cc(C(F)(F)F)cc(C(F)(F)F)c2)[C@@H]1C` [Example 259, (4S,5R)-3-({6-azetidin-1-yl-3-[5-(2-hydroxyethyl)-2-methoxyphenyl]pyridin-2-yl}methyl)-5-[3,5-bis(trifluoromethyl)phenyl]-4-methyl-1,3-oxazolidin-2-one], the IC50 was 4 nM.
As to `COc1ccc(CCC(=O)O)cc1-c1ccc(N2CCCC2)nc1CN1C(=O)O[C@H](c2cc(C(F)(F)F)cc(C(F)(F)F)c2)[C@@H]1C` [Example 62], the IC50 is 49 nM.
Take `COC(=O)[C@H]1CC[C@@H](c2ccc(OC)c(-c3ccc(N4CCC4)nc3CN3C(=O)O[C@H](c4cc(C(F)(F)F)cc(C(F)(F)F)c4)[C@@H]3C)c2)C1` (single isomer, unassigned) [Example 217]: the IC50 is 19 nM.
